Assay results published in patent US20250325712A1, “TARGETING LIGANDS FOR DISEASE-TARGETED IMAGING AGENTS AND METHODS OF USE THEREFOR” (Curadel Surgical Innovations, Inc., priority 2024, published 2025).

Assay: Stability of dyes in 37° C. buffered fetal bovine serum (normalized absorbance and absorbance spectra over time)
Type: in vitro ADME
Settings: compared to ZW800-1
Procedure: The normalized absorbance of ZW800-1 and ZW700-1c in 37° C. buffered FBS, pH 7.4 over time from 0 to 60 hours are shown in FIGS. 2-4.

Question: For `CC1(C)C(/C=C/C(=C/C=C2/N(CCC[N+](C)(C)C)c3ccc(S(=O)(=O)[O-])cc3C2(C)C)c2ccc(CCC(=O)[O-])cc2)=[N+](CCC[N+](C)(C)C)c2ccc(S(=O)(=O)[O-])cc21` [ZW700-1c], which “stability: normalized absorbance over time” value (37° C. buffered FBS, pH 7.4, 0 to 60 hours) is on record?
Answer: extreme stability

Question: And the “stability over time: changes in absorption spectra during metabolism in warm serum” value (warm serum (37° C. buffered FBS, pH 7.4, 0 to 48 hours))?
Answer: high stability
